Experimental data as given in the NIST ThermoML archive (doi:10.1021/acs.jced.6b00856).
± gives the expanded uncertainty stated by the source.

Assay: mn = molality of the nth substance listed, in mol/kg
Settings: 101.3 kPa, Liquid; for viscosity: Capillary tube (Ostwald / Ubbelohde) method; for mass density: Pycnometric method

C1CNCCN1 [piperazine] + O
Settings | mass density, 303.15 K [kg/m3] | mass density, 313.15 K [kg/m3] | mass density, 323.15 K [kg/m3] | viscosity, 303.15 K [mPa·s] | viscosity, 313.15 K [mPa·s] | viscosity, 323.15 K [mPa·s]
m1 = 0.66 | 997.55 ± 0.27 | 994.45 ± 0.29 | 989.89 ± 0.31 | 0.987 ± 0.04 | 0.789 ± 0.039 | 0.641 ± 0.039
m1 = 1.1 | 999.58 ± 0.27 | 995.73 ± 0.29 | 991.34 ± 0.31 | 1.169 ± 0.04 | 0.916 ± 0.04 | 0.747 ± 0.039
m1 = 1.7 | 1002.4 ± 0.3 | 998.08 ± 0.3 | 993.64 ± 0.32 | 1.456 ± 0.04 | 1.124 ± 0.04 | 0.893 ± 0.039
